Reference: US20220160688A1, “INHIBITION OF NAMPT AND/OR SARM1 FOR THE TREATMENT OF AXONAL DEGRADATION” (THE JOHNS HOPKINS UNIVERSITY, priority 2019, published 2022)
Entries after “also recorded” stand apart in the source; their conditions may differ.

How the values were obtained:
[1] = system: Mouse dorsal root ganglion (DRG) cells; assay: Microfluidic based axon degeneration assay (axotomy, degeneration index); format: cell-based; conditions: for efficacy against Wallerian degeneration compared with FK866: tested at different concentrations; for Optimized Concentration used (from dose response curves): tested 2 hours following axotomy
Experimental: A poly-dimethylsiloxane (PDMS)-based microfluidic device described by Hosmane and colleagues was used for these experiments (see, FIG. 16) (see, Hosmane, et al., Lab Chip 2010, 10, 741-747). This device provisions a perikaryal compartment where nerve cells are first placed and a juxtaposed array of 200 microchannels towards which axons grow and through which they traverse to reach a third axonal compartment. Mouse dorsal root ganglion (DRG) cells were prepared from E12-13 embryos and plated to the perikaryal compartment. After 6-7 days of culture at 37° C. and 5% CO2, axons were cut using a razor blade with vehicle or reagents. Images of the axonal compartment were taken at various time intervals at 20× magnification. Images were then analyzed for degeneration index (DI) which indicates percentage of fragmented axons over total axonal area, and drug-treated axons were compared to vehicle treated or uninjured axons. Live time-lapse images were taken as needed.

[2] = system: mice injured with impact-acceleration; assay: Pellet-reaching task after impact-acceleration traumatic brain injury; format: in vivo, mouse; conditions: drug administered continuously for 14 days post injury (osmotic pump); vs vehicle-treated mice
Experimental: Experiments were conducted to characterize the effects of SARM1 deletion or pharmacological SARM1 blockade on corticospinal-dependent motor deficits after traumatic brain injury (impact-acceleration). This was tested on the pellet-reaching task, i.e. the golden-standard to assess skilled function of the forelimbs in rodents relevant to a similar task used to assess fine motor function in humans. Specifically, experiments trained mice for 2 weeks before TBI in order to reach peak performance in the task. At that point the trained mice were injured with impact-acceleration. Experiments next measured their performance every day for two weeks post injury and comparisons were made between groups of mice administered FK866 and vehicle treated mice (control group).
Mice were placed under food restriction or 2 days to lose approximately 10% of their body weight. Following this, the shaping phase of the experiment was initiated: two mice were placed in the training chamber comprised of a clear Plexiglas chamber with ample food for 20 minutes for the first day, whereas one mouse was placed in the same chamber on day 2. The training chamber has a single slit through which the mouse can retrieve a pellet of food placed on the outside right in front of the slit. […] Retrieval attempts were recorded and characterized as successful only if a mouse retrieved the pellet and put it in its mouth. […]

[3] = system: IA-injured Thy1-eYFP-H mice; assay: CLARITY-based counts of axonal lesions in the CST after impact acceleration (IA) injury; format: in vivo, mouse; conditions: FK866 10 mg/kg i.p. immediately after injury then every 6 h, vs vehicle
Text: IA injury was produced under gas anesthesia with 2% isoflurane. Under aseptic conditions and with the subject in a small-animal stereotactic frame, a 5-mm-diameter steel disc was glued on the exposed cranium between bregma and lambda to prevent skull fracture. The mouse was then placed prone on a foam bed under a hollow Plexiglas tube and secured with tape as described previously (see, Xu L, (2016) Exp Neurol 275:436-449). Injury was produced by dropping a brass weight from a height of 1 m through the Plexiglas tube onto the disk. In all cases except the impact dose-response study outlined below, that weight was 60 g. The foam bed was pulled immediately at the rebound of the weight off the metal disc, such as to prevent a second impact. The metal disc was then removed, scalp incision was closed with surgical staples, and the animal returned to cage for full recovery. Subjects with skull fractures confirmed with a surgical microscope were excluded from the study. […]
For 3D visualization and quantitative analysis of axonal injury of cleared brainstems, we used the software suite Imaris (Bitplane). […] For the detection and quantification of axonal swellings based on YFP and APP, the spot detection function for the whole CST volume from the pons to the pyramidal decussation or cervical spinal cord was used. […]

Row | Structure (SMILES) | efficacy against Wallerian degeneration compared with FK866 ([1]; axotomized DRG axons) | Optimized Concentration used (from dose response curves) [1] | further results
1 | Cc1ccc(S(=O)(=O)Cc2nc(-c3ccc(C(=O)NCc4cccnc4)cc3)oc2C)cc1 [STF118804] | comparably strong efficacy | 250 nM | 
2 | N#CN=C(NCCCCCCOc1ccc(Cl)cc1)Nc1ccncc1 [CHS-828] | comparably strong efficacy | 250 nM | 
3 | O=C(CCCCCCCn1cc(-c2cccnc2)nn1)Nc1ccccc1-c1ccccc1 [GPP78] | comparably strong efficacy | 1000 nM | 
4 | NC(=O)c1ccc[n+]([C@@H]2O[C@H](CO)[C@@H](O)[C@H]2O)c1 [NAR, nicotinamide riboside] |  |  | effect of added NAR on the protective effect of FK866 ([1]; FK866 and/or NAR at the time of injury): further augmented the protective effect of FK866
5 | NC(=O)c1ccc[n+]([C@@H]2O[C@H](COP(=O)([O-])O)[C@@H](O)[C@H]2O)c1 [NMN, nicotinamide mononucleotide] |  |  | effect of added NMN on the protection by NAMPT inhibition (FK866) ([1]; FK866 at time of injury, NMN added 0, 2, 4 hours post axotomy): reversed
6 | CC(C)(C)c1ccc(S(=O)(=O)NCc2ccc(C(=O)Nc3cccnc3)cc2)cc1 [STF31] | comparably strong efficacy | 2000 nM | 
7 | O=C(/C=C/c1cccnc1)NCCCCC1CCN(C(=O)c2ccccc2)CC1 [FK866] |  | 100 nM | skilled motor function (pellet-reaching performance) [2]: significant preservation of skilled motor function; also recorded: maintain their pellet-reaching skill; number (density) of axonal lesions per anatomical segment (CST×RST, pyramidal decussation, cervical cord) ([3]; 24 h after injury): significantly lower number of axonal lesions; total number of axonal lesions in the CST from the pons to cervical spinal cord ([3]; counted 24 h after injury, 10 mg/kg): significantly lower number of axonal lesions; also recorded: smaller number of axonal lesions; optimal therapeutic window of treatment onset ([1]; FK866 given at 0, 2, 4, 6 hours following injury): within two to six hours of injury; delay of further fragmentation ([1]; axotomized DRG axons, treatment after the onset of visible fragmentation): still effective in delaying further fragmentation; protection against Wallerian degeneration (degeneration index) ([1]; axotomized DRG axons, treatment at 2 hours post-injury): Maximum protection against WD
